pEC50: −log10 of the molar value. Where “and” joins values, the source holds several entries; their conditions need not be identical. Equal values may be shown once.
Columns and labels:
Plasmodium falciparum [1] = test: NOVARTIS: Inhibition of Plasmodium falciparum 3D7 (drug-susceptible) proliferation in erythrocyte-based infection assay; format: functional, organism-based
Plasmodium falciparum [2] = test: NOVARTIS: Inhibition of Plasmodium falciparum W2 (drug-resistant) proliferation in erythrocyte-based infection assay; format: functional, organism-based; details: read-out: EC50
Huh-7 = test: NOVARTIS: Cytotoxicity against human hepatocellular carcinoma cell line (Huh7); format: toxicity, cell-based; details: huh-7, read-out: CC50

CCN1/C(=C/c2ccc3ccccc3[n+]2CC)C=Cc2ccccc21
pEC50 (Plasmodium falciparum [1]): 6.21 and 7.18
pEC50 (Plasmodium falciparum [2]): 6.26 and 6.72
CC50 (Huh-7): > 10000 nM and 36800 nM

Cc1[nH]c2ccccc2c1/C=C/c1cc[n+](C)cc1
pEC50 (Plasmodium falciparum [1]): 6.76
pEC50 (Plasmodium falciparum [2]): 6.67
CC50 (Huh-7): > 100000 nM

CC[n+]1c(/C=C/c2ccc(N(C)C)cc2)sc2cc(NC(C)=O)ccc21
pEC50 (Plasmodium falciparum [1]): 5.82
pEC50 (Plasmodium falciparum [1]; Plasmodium falciparum, 3D7): 6.02
pEC50 (Plasmodium falciparum [2]): 6.16 and 6.47
CC50 (Huh-7): > 100000 nM

CCN1/C(=C/c2sc3ccccc3[n+]2CC)Sc2ccccc21 [listing 1 of 2 here]
pEC50 (Plasmodium falciparum [1]): 6.25
pEC50 (Plasmodium falciparum [2]): 6.61
CC50 (Huh-7): 32600 nM

CCN1/C(=C/c2sc3ccccc3[n+]2CC)Sc2ccccc21 [listing 2 of 2 here]
pEC50 (Plasmodium falciparum [1]): 6.73
pEC50 (Plasmodium falciparum [2]): 7.97
CC50 (Huh-7): 11100 nM

CCN1/C(=C/c2ccc3ccccc3[n+]2CC)Sc2cc(NC(C)=O)ccc21 [listing 1 of 2 here]
pEC50 (Plasmodium falciparum [1]): 6.95
pEC50 (Plasmodium falciparum [2]): 7.15
CC50 (Huh-7): > 100000 nM

CN(C)c1ccc(C=CC=Cc2cc[n+](C)cc2)cc1
pEC50 (Plasmodium falciparum [1]; Plasmodium falciparum, 3D7): 6.19
pEC50 (Plasmodium falciparum [2]; Plasmodium falciparum, W2): 6.30
CC50 (Huh-7): > 10000 nM

CCN1/C(=C/c2cccc[n+]2C)C=Cc2ccccc21
pEC50 (Plasmodium falciparum [1]): 6.40
pEC50 (Plasmodium falciparum [1]; Plasmodium falciparum, 3D7): 6.18
pEC50 (Plasmodium falciparum [2]; Plasmodium falciparum, W2): 6.28
pEC50 (Plasmodium falciparum [2]): 6.24
CC50 (Huh-7): > 64500 nM

C[n+]1c(C=CNc2ccccc2)n(-c2ccccc2)c2ccc(Cl)cc21 [listing 1 of 2 here]
pEC50 (Plasmodium falciparum [1]): 6.74
pEC50 (Plasmodium falciparum [2]): > 7.84
CC50 (Huh-7): > 10000 nM

C[n+]1ccc(C=Cc2ccc(O)cc2)cc1
pEC50 (Plasmodium falciparum [1]): 6.52
pEC50 (Plasmodium falciparum [2]): 6.76
CC50 (Huh-7): > 10000 nM

CCN1/C(=C/c2ccc3ccccc3[n+]2CC)Sc2cc(NC(C)=O)ccc21 [listing 2 of 2 here]
pEC50 (Plasmodium falciparum [1]): 6.03
pEC50 (Plasmodium falciparum [2]): 6.15
CC50 (Huh-7): > 10000 nM

Cc1occc1C(=O)NN=C/C(Br)=C/c1ccccc1
pEC50 (Plasmodium falciparum [1]): 5.86 and 6.69
pEC50 (Plasmodium falciparum [2]; Plasmodium falciparum, W2): 6.23
pEC50 (Plasmodium falciparum [2]): 6.30
CC50 (Huh-7): > 10000 nM and 47100 nM

CCN1/C(=C/c2cccc[n+]2C)Sc2ccc(C)cc21
pEC50 (Plasmodium falciparum [1]): 6.31 and 5.87
pEC50 (Plasmodium falciparum [2]): 6.26 and 5.64
CC50 (Huh-7): > 100000 nM

CCN1/C(=C/c2cccc[n+]2C)C=Cc2cc(C)ccc21
pEC50 (Plasmodium falciparum [1]): 6.10
pEC50 (Plasmodium falciparum [1]; Plasmodium falciparum, 3D7): 6.37
pEC50 (Plasmodium falciparum [2]; Plasmodium falciparum, W2): 6.22
pEC50 (Plasmodium falciparum [2]): 6.02
CC50 (Huh-7): > 100000 nM

COc1ccc(/C=C2/SC(=Nc3ccccc3)NC2=O)c(OC)c1
pEC50 (Plasmodium falciparum [1]): 6.18
pEC50 (Plasmodium falciparum [1]; Plasmodium falciparum, 3D7): 6.27
pEC50 (Plasmodium falciparum [2]; Plasmodium falciparum, W2): 6.37
pEC50 (Plasmodium falciparum [2]): 6.60
CC50 (Huh-7): > 100000 nM

CC[n+]1c(C=CN(C)c2ccccc2)sc2ccc(OC)cc21
pEC50 (Plasmodium falciparum [1]; Plasmodium falciparum, 3D7): 6.04
pEC50 (Plasmodium falciparum [2]; Plasmodium falciparum, W2): 6.40
CC50 (Huh-7): > 10000 nM

CCN(CC)c1ccc(C=Cc2cccc[n+]2CC)cc1
pEC50 (Plasmodium falciparum [1]): 8.61
pEC50 (Plasmodium falciparum [2]): 6.54
CC50 (Huh-7): > 10000 nM

C[n+]1ccccc1C=Cc1cc(Br)ccc1O
pEC50 (Plasmodium falciparum [1]; Plasmodium falciparum, 3D7): 6.52
pEC50 (Plasmodium falciparum [2]; Plasmodium falciparum, W2): 6.36
CC50 (Huh-7): > 10000 nM

CC[n+]1ccccc1C=Cc1ccc(N(C)C)cc1
pEC50 (Plasmodium falciparum [1]): 6.58 and 6.46
pEC50 (Plasmodium falciparum [1]; Plasmodium falciparum, 3D7): 6.44
pEC50 (Plasmodium falciparum [2]): 5.90 and 6.57 and 6.42
CC50 (Huh-7): 15200 nM and > 10000 nM and > 100000 nM

CC[n+]1c(/C=C/N2CCCc3ccccc32)ccc2ccccc21
pEC50 (Plasmodium falciparum [1]): 6.99
pEC50 (Plasmodium falciparum [2]): 6.61
CC50 (Huh-7): > 9970 nM

CCN1C(=Cc2sc3cc(NC(C)=O)ccc3[n+]2CC)C=Cc2cc(C)ccc21
pEC50 (Plasmodium falciparum [1]): 5.80
pEC50 (Plasmodium falciparum [2]; Plasmodium falciparum, W2): 6.25
CC50 (Huh-7): > 10000 nM

CN1/C(=C/c2cccc[n+]2C)C=Cc2ccccc21
pEC50 (Plasmodium falciparum [1]): 6.25
pEC50 (Plasmodium falciparum [1]; Plasmodium falciparum, 3D7): 6.35
pEC50 (Plasmodium falciparum [2]; Plasmodium falciparum, W2): 6.28
pEC50 (Plasmodium falciparum [2]): 6.11
CC50 (Huh-7): > 100000 nM

Cc1cccc(N=C2NC(=O)/C(=C\c3ccc(N(C)C)cc3)S2)c1
pEC50 (Plasmodium falciparum [1]): 5.93
pEC50 (Plasmodium falciparum [1]; Plasmodium falciparum, 3D7): 6.11
pEC50 (Plasmodium falciparum [2]): 5.78 and 6.29
CC50 (Huh-7): > 100000 nM

CCN1/C(=C\C=C\c2n(CC)c3ccc(C#N)cc3[n+]2CC)Oc2ccc(-c3ccccc3)cc21
pEC50 (Plasmodium falciparum [1]): 5.41
pEC50 (Plasmodium falciparum [2]): 5.22
CC50 (Huh-7): > 100000 nM

CCn1c(C=CN(C(C)=O)c2ccccc2)[n+](CC)c2cc(Cl)ccc21
pEC50 (Plasmodium falciparum [1]): 5.59
pEC50 (Plasmodium falciparum [2]): 5.80
CC50 (Huh-7): > 100000 nM

C[n+]1c(C=CNc2ccccc2)n(-c2ccccc2)c2ccc(Cl)cc21 [listing 2 of 2 here]
pEC50 (Plasmodium falciparum [1]): 6.27
pEC50 (Plasmodium falciparum [2]): 6.50
CC50 (Huh-7): 23800 nM

Cc1ccc(-n2c(C)cc(/C=C3\SC(=Nc4ccc(Cl)cc4)NC3=O)c2C)cc1
pEC50 (Plasmodium falciparum [1]): 6.29 and 6.71
pEC50 (Plasmodium falciparum [2]; Plasmodium falciparum, W2): 6.21
pEC50 (Plasmodium falciparum [2]): 6.20
CC50 (Huh-7): > 100000 nM

CC1=C(C=CC(C)C=NNC(=O)c2ccncc2)C(C)(C)CCC1 (configuration not stated)
pEC50 (Plasmodium falciparum [1]): 5.85
pEC50 (Plasmodium falciparum [1]; Plasmodium falciparum, 3D7): 6.05
pEC50 (Plasmodium falciparum [2]; Plasmodium falciparum, W2): 6.06
pEC50 (Plasmodium falciparum [2]): 5.95
CC50 (Huh-7): > 100000 nM

CC(C)c1ccc(/C=C2/SC(=Nc3ccccc3)NC2=O)cc1
pEC50 (Plasmodium falciparum [1]): 6.00 and 6.32
pEC50 (Plasmodium falciparum [2]; Plasmodium falciparum, W2): 5.95
pEC50 (Plasmodium falciparum [2]): 6.00
CC50 (Huh-7): > 100000 nM

CCN1/C(=C/c2cccc[n+]2C)Sc2ccccc21
pEC50 (Plasmodium falciparum [1]): 5.37 and 6.36
pEC50 (Plasmodium falciparum [2]): 5.97 and 5.57
CC50 (Huh-7): > 100000 nM

O=C1NC(=Nc2ccccc2)/C(=C/c2ccc(O)cc2)S1
pEC50 (Plasmodium falciparum [1]): 6.09
pEC50 (Plasmodium falciparum [1]; Plasmodium falciparum, 3D7): < 5.90
pEC50 (Plasmodium falciparum [2]; Plasmodium falciparum, W2): < 5.96
pEC50 (Plasmodium falciparum [2]): 5.67
CC50 (Huh-7): > 10000 nM and 21000 nM

CCN1C(=Cc2sc3ccccc3[n+]2C)C=Cc2cccc(C)c21
pEC50 (Plasmodium falciparum [1]): 7.18
pEC50 (Plasmodium falciparum [2]): 6.64
CC50 (Huh-7): 27400 nM

C=CC[n+]1c(C=C2C=CC=CN2C)sc2ccccc21
pEC50 (Plasmodium falciparum [1]): 6.55
pEC50 (Plasmodium falciparum [2]): 6.39
CC50 (Huh-7): > 100000 nM
